According to ChEMBL document CHEMBL1137669, “BK Virus replication in vitro: limited effect of drugs interfering with viral uptake and intracellular transport” (Antimicrob Agents Chemother, 2007):
pEC50: −log10 of the molar value.

What was measured:
BK polyomavirus [1] = test: Antiviral activity against BKV Gardner ATCC VR837 infected in human WI38 cells assessed as reduction in viral DNA level preincubated for 2 hrs before viral infection measured after 7 days by real time PCR assay; assay type: functional, organism-based, Betapolyomavirus hominis, WI-38
[2] = Selectivity index, ratio of CC50 for human WI38 cells preincubated for 2 hrs before viral infection measured after 7 days by real time PCR assay to EC50 for BKV Gardner ATCC VR837; assay type: toxicity, cell-based, WI-38; conditions: for selectivity ratio at 168 h: WI38 cells, read-out: Ratio CC50/EC50
[3] = Cytotoxicity against human WI38 cells assessed as reduction in cellular DNA level preincubated for 2 hrs before viral infection measured after 7 days by real time PCR assay; assay type: cell-based, WI-38; conditions: for CC50 at 168 h: WI38 cells
[4] = Cytotoxicity against human WI38 cells assessed as reduction in cellular DNA level at 6.25 uM preincubated for 2 hrs before viral infection measured after 7 days by real time PCR assay; assay type: cell-based; conditions: wi-38, 168 h
[5] = Cytotoxicity against human WI38 cells by conventional neutral red assay; assay type: cell-based, WI-38
BK polyomavirus [6] = test: Antiviral activity against BKV Gardner ATCC VR837 infected in human WI38 cells assessed as reduction in viral DNA level after 7 days by real time PCR assay; assay type: functional, organism-based; conditions: Betapolyomavirus hominis, WI-38, 168 h
[7] = Cytotoxicity against human WI38 cells assessed as reduction in cellular DNA level after 7 days by real time PCR assay; assay type: cell-based, WI-38
[8] = Selectivity index, ratio of CC50 for human WI38 cells after 7 days by real time PCR assay to EC50 for BKV Gardner ATCC VR837; assay type: toxicity, cell-based, WI-38; conditions: read-out: Ratio CC50/EC50
[9] = Selectivity index, ratio of CC50 for human WI38 cells by conventional neutral red assay to EC50 for BKV Gardner ATCC VR837; assay type: toxicity, cell-based, WI-38; conditions: read-out: Ratio CC50/EC50
[10] = Betapolyomavirus hominis, Gardner, WI-38

| Compound | pEC50 (BK polyomavirus [1]; [10]) | selectivity ratio at 168 h [2] | CC50 at 168 h [3] [µM] | other results |
| --- | --- | --- | --- | --- |
| CN1CCN(C2=Nc3cc(Cl)ccc3Nc3ccccc32)CC1 [CLOZAPINE] | 4.63 | 4.9 | 40 |  |
| CN(C)CCCN1c2ccccc2Sc2ccc(Cl)cc21 [CHLORPROMAZINE] | 5.12 | 1.98 | 10.3 |  |
| CO[C@H]1O[C@H](CO)[C@@H](O)[C@H](O)[C@@H]1O | < 4.00 |  | > 100 |  |
| O=C1Cc2cc(CCN3CCN(c4nsc5ccccc45)CC3)c(Cl)cc2N1 [ZIPRASIDONE] | < 4.00 |  | > 100 |  |
| O=C1OC([C@@H](O)CO)[C@H](O)[C@@H]1O (some centres undefined) | < 4.00 |  | > 100 |  |
| CCN(CC)CCCC(C)Nc1ccnc2cc(Cl)ccc12 (centres undefined) [CHLOROQUINE] | 5.77 | 5.32 | 8.5 |  |
| COC(=O)[C@H]1O[C@@H](OC(C)=O)[C@H](OC(C)=O)[C@@H](OC(C)=O)[C@@H]1OC(C)=O | < 4.00 |  | > 100 |  |
| COc1cc2c(c(OC)c1OC)-c1ccc(OC)c(=O)cc1[C@@H](NC(C)=O)CC2 [COLCHICINE] | 7.66 | 3.63 | 0.0476 |  |
| CC(=O)OC[C@H]1OC[C@H](OC(C)=O)[C@@H](OC(C)=O)[C@H]1OC(C)=O | < 4.00 |  | > 100 |  |
| C[C@@H]1[C@H](O)[C@@H](C)/C=C/C=C/C=C/C=C/C=C/C=C/C=C/[C@H](O[C@@H]2O[C@H](C)[C@@H](O)[C@H](N)[C@@H]2O)C[C@@H]2O[C@](O)(C[C@@H](O)C[C@@H](O)[C@H](O)CC[C@@H](O)C[C@@H](O)CC(=O)O[C@H]1C)C[C@H](O)[C@H]2C(=O)O [AMPHOTERICIN B] | 5.78 | 2.99 | 4.99 | Activity [4]: Active |
| CCCCCCCCO[C@@H]1O[C@H](CO)[C@@H](O)[C@H](O)[C@H]1O | < 4.00 |  | > 100 |  |
| Cc1nc2n(c(=O)c1CCN1CCC(c3noc4cc(F)ccc34)CC1)CCCC2 [RISPERIDONE] | < 4.60 |  | 25 |  |
| NYSTATIN |  |  |  | pEC50 (BK polyomavirus [1]; wi-38): 5.01; Ratio CC50/EC50 ([2]; wi-38, 168 h): 5.13; CC50 ([3]; wi-38, 168 h): 48.6 µM |
| CC(=O)OC[C@H]1OC[C@H](OC(C)=O)[C@@H](OC(C)=O)[C@@H]1OC(C)=O | < 4.00 |  | > 100 |  |
| CCCCCCCCCO[C@@H]1O[C@H](CO)[C@@H](O)[C@H](O)[C@H]1O | 5.20 | 16 | 78.3 | CC50 [5]: 126 µM; pEC50 (BK polyomavirus [6]): 4.01; CC50 at 168 h [7]: 114 µM; selectivity ratio at 168 h [8]: 1.25; selectivity ratio [9]: 30.5 |
| Cc1cc2c(s1)Nc1ccccc1N=C2N1CCN(C)CC1 [OLANZAPINE] | < 4.00 |  | > 100 |  |
| COC(=O)[C@H]1O[C@@H](O)[C@H](O)[C@@H](O)[C@H]1O | < 4.00 |  | > 100 |  |
| O=C(O)[C@H]1OC(O)[C@H](O)[C@@H](O)[C@@H]1O (some centres undefined) | < 4.00 |  | > 100 |  |
